From patent US20200062696A1, “COMPOSITIONS AND METHODS FOR INHIBITING RETICULON 4” (THE REGENTS OF THE UNIVERSITY OF CALIFORNIA, priority 2017, published 2020)

Target: T1, C1101 in reticulon 4 (RTN4, Uniprot ID Q9NQC3-1) (Homo sapiens, UniProt Q9NQC3)
T1 construct: endogenous in cells; host or cells: SW620 colorectal cancer cell lysate
T1 sequence (Q9NQC3 1-1192): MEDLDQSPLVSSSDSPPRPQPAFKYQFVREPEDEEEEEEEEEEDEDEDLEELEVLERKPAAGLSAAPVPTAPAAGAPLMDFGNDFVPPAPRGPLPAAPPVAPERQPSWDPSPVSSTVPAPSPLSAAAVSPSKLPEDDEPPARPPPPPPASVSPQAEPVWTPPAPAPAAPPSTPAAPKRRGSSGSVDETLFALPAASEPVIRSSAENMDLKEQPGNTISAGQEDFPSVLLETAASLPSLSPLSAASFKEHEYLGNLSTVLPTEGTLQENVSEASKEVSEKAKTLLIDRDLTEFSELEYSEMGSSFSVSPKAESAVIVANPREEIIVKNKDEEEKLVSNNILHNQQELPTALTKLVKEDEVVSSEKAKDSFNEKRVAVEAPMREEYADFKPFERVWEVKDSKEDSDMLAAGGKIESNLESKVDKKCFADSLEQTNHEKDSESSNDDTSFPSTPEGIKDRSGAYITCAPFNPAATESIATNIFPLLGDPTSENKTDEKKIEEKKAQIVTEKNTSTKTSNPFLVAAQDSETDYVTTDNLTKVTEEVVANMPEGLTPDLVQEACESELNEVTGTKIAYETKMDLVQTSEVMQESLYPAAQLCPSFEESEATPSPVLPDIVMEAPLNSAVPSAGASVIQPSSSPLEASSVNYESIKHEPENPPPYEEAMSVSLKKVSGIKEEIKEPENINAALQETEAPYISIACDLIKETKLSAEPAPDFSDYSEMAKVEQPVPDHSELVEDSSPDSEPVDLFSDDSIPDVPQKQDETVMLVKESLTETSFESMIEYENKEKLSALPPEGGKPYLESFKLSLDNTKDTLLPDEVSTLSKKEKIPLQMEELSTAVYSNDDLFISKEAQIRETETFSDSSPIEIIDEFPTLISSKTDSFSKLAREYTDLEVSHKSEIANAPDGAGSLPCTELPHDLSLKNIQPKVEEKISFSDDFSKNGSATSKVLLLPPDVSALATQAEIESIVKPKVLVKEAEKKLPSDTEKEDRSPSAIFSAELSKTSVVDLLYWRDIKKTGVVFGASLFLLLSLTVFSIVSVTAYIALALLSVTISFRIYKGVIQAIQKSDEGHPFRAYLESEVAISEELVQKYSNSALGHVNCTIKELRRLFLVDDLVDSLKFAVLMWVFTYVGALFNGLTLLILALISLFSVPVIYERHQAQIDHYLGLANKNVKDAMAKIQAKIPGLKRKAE
Assay: Competitive isoTOP-ABPP against IAyne labeling in SW620 proteomes: RTN4 C1101
Format: binding
From the text: We next performed isoTOP-ABPP studies to identify the direct targets of these lead compounds. We competed either vehicle or DKM 3-30 against labeling of SW620 proteomes with a broad cysteine-reactive probe, iodoacetamide-alkyne (IAyne), followed by appending probe-labeled proteins with a biotin-azide tag bearing a TEV protease recognition site and an isotopically light (for vehicle-treated) or heavy (for fragment-treated) tags via copper catalyzed azide-alkyne cycloaddition (CuAAC)^6,9. We then combined control and treated proteomes in a 1:1 ratio, enriched probe-labeled proteins with avidin, and digested proteomes with trypsin. Avidin-enriched probe-modified tryptic peptides were released by TEV protease digestion for subsequent quantitative proteomic analysis. Through these studies, we identified the top hit for DKM 3-30 as C1101 in reticulon 4 (RTN4, Uniprot ID Q9NQC3-1) with a light to heavy ratio of 3.0 (FIG. 2A; Table 2).
IsoTOP-ABPP Analysis. IsoTOP-ABPP analyses were performed as previously described^5-7. For competitive IsoTOP-ABPP, SW620 cell lysates were pre-incubated with DMSO vehicle or DKM 3-30 (50 μM) for 30 min at 37° C. in phosphate-buffered saline (PBS), and then labeled with IAyne (100 μM) for 1 h at room temperature. […]

Structure (SMILES): C=CC(=O)Nc1ccc(Oc2ccc(Cl)cc2)cc1 [DKM 3-30, N-(4-(4-chlorophenoxy)phenyl)acrylamide]
- light to heavy ratio (DKM 3-30 50 μM, 30 min 37° C., then IAyne 100 μM, ratio >3 indicates bound sites): 3.0
- Ave area ratio (light to heavy ratio), peptide YSNSALGHVNC*TIK, C1101, Q9NQC3 (SW620 cell proteomes pre-treated with DMSO (light) or ligand 50 μM (heavy) 30 min at 37° C., then IAyne 100 μM 1h, averaged over runs): 3.04
